The results in this text go back to ChEMBL document CHEMBL5346938, “Bis-chalcones: A review of synthetic methodologies and anti-inflammatory effects” (Eur J Med Chem, 2023).

In general, IC50 refers to the midpoint of a concentration-inhibition curve. By inhibition is commonly meant the relative decrease from the control value, in per cent.

A short description of assay [1]: Inhibition of LPS-induced NFkappaB activation in mouse RAW264.7 cells assessed as effect on LPS-induced nuclear translocation of NF-kappaB incubated for 1 hr. The class given is cell-based. The note with it: RAW264.7, 1 h.
Assay [2] has as its system RAW264.7. The assay is described as follows: Inhibition of LPS-induced NFkappaB activation in mouse RAW264.7 cells assessed as effect on LPS-induced nuclear translocation of NF-kappaB incubated for 1 hr at 5 uM relative to control. The class given is cell-based.
For assay [3], the system named is BV-2. Put plainly: Antiinflammatory activity in mouse BV-2 cells assessed as reduction in LPS-induced nitric oxide production at 10 uM relative to control. The class given is functional. Also noted: scale not given: the % may be the effect or the level left.

For the compound `O=C1/C(=C/c2ccccn2)CNC/C1=C\c1ccccn1`, the IC50 in assay [1] is 4.5 µM. Further, the inhibition in assay [2] came out at 100%.
Turning to `COc1cc(/C=C/C(=O)c2cccc(C(=O)/C=C/c3ccc(O)c(OC)c3)c2)ccc1O`, the Activity in assay [3] is given as 70%.
